# pIC50: −log10 of the molar value.
# Biological target: T1, K103NNY181C mutant reverse transcriptase (Human immunodeficiency virus type 1 group M subtype B, UniProt P04585, K690N/Y768C)
# T1 construct: mutations that occur in the reverse transcriptase segment of the pol gene
# Experiment: Reverse transcriptase enzymatic assay (PicoGreen), K103N/Y181C mutant RT
# Type: biochemical, HIV-1
# Conditions: IC50 mut (nM), mutant (K103N/Y181C) reverse transcriptase, enzymatic assay of Example 24
# In short: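 HIV-1 RT (2.5 nM final) pre-incubated 15 min at room temperature with inhibitor, then reacted 50 min at 37 °C with poly rC 45 nM, dG15 4.5 nM, dGTP 3.6 μM in Tris/HCl pH 7.8, 1% DMSO. Final inhibitor 10 μM to 0.508 nM; EDTA-quenched, PicoGreen fluorescence read at 485/520 nm.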
row,SMILES,IC50
1,CC(C)(C)c1ccc(-n2nnnc2SCC(=O)Nc2ccc(NC(=O)Cc3cccc([N+](=O)[O-])c3)cc2Cl)c(Cl)c1 [Compound 7017],170 nM
2,CC(C)(C)c1ccc(-n2nnnc2SCC(=O)Nc2ccc(NC(=O)Cc3ccc([N+](=O)[O-])cc3)cc2Cl)c(Cl)c1 [Compound 7025],154 nM
3,CC(C)CCC(=O)Nc1ccc(NC(=O)CSc2nnnn2-c2ccc(C(C)(C)C)cc2Cl)c(Cl)c1 [Compound 7024],414 nM

# Same assay, conditions: IC50 mut, K103N/Y181C mutant reverse transcriptase, enzymatic assay of Example 24
row,SMILES,pIC50
1,CC(C)(C#Cc1ccc(NC(=O)CSc2nnnn2-c2ccc(C3CC3)cc2Cl)c(Cl)c1)NC(=O)CN1CCC(O)CC1 [Compound 4125],7.59
2,CN(C)C(=O)COC(C)(C)C#Cc1ccc(NC(=O)CSc2nnnn2-c2ccc(C(C)(C)C)cc2Cl)c(Cl)c1 [Compound 4049],7.52
3,CN1CCN(CC2(C#Cc3ccc(NC(=O)CSc4nnnn4-c4ccc(C5CC5)cc4Cl)c(Cl)c3)CC2)CC1 [Compound 4094],7.31
4,O=C(CSc1nnnn1-c1ccc(C2CC2)cc1Cl)Nc1ccc(C#CCCN2CCNCC2)cc1Cl [Compound 4135],7.54
5,CN(C)c1ccc(Cl)c(-n2nnnc2SCC(=O)Nc2ccc(C#CC(C)(C)C(=O)O)cc2Cl)c1 [Compound 4243],6.85
6,CC(C)(C#Cc1ccc(NC(=O)CSc2nnnn2-c2cc(C(F)(F)F)ccc2Cl)c(Cl)c1)NC(=O)c1cc[n+]([O-])cc1 [Compound 4120],7.76
7,CC(C)(C#Cc1ccc(NC(=O)CSc2nnnn2-c2cc(C(C)(C)C)ccc2Cl)c(Cl)c1)NC(=O)CN1CCC(C(=O)O)CC1 [Compound 4204],7.46
8,C#Cc1ccc(NC(=O)CSc2nnnn2-c2ccc(C(C)(C)C)cc2Cl)c(Cl)c1 [Compound 4089],7.16
9,CC(C)c1ccc(-n2nnnc2SCC(=O)Nc2ccc(C#CC(C)(C)C(=O)O)cc2Cl)c(Br)c1 [Compound 4099],7.37
10,CC(C)(C#Cc1ccc(NC(=O)CSc2nnnn2-c2ccc(CC3CC3)cc2Cl)c(Cl)c1)OCCN1CCCC1 [Compound 4246],6.67
11,CC(C)(C)c1ccc(-n2nnnc2SCC(=O)Nc2ccc(C#Cc3ccccc3)cc2Cl)c(Cl)c1 [Compound 4002],6.57
12,CN(C)CC(=O)NC(C)(C)C#Cc1ccc(NC(=O)CSc2nnnn2-c2ccc(C3CC3)cc2Cl)c(Cl)c1 [Compound 4087],7.67
13,CC(C)(C#Cc1ccc(NC(=O)CSc2nnnn2-c2cc(C(F)(F)F)ccc2Cl)c(Cl)c1)NC(=O)c1ncccn1 [Compound 4139],7.69
14,CC(C)(C#Cc1ccc(NC(=O)CSc2nnnn2-c2ccc(C(C)(C)C)cc2Cl)c(Cl)c1)OCC(=O)NC1(C(=O)O)CC1 [Compound 4036],7.44
15,CC(C)(C)c1ccc(-n2nnnc2SCC(=O)Nc2ccc(C#CCN3CCCC3)cc2Cl)c(Cl)c1 [Compound 4012],7.34
16,CC(C)(N)C#Cc1ccc(NC(=O)CSc2nnnn2-c2cc(C(F)(F)F)ccc2Cl)c(Cl)c1 [Compound 4137],7.06
17,CN(C)CC(=O)NC(C)(C)C#Cc1ccc(NC(=O)CSc2nnnn2-c2cc(C(F)(F)F)ccc2Cl)c(Cl)c1F [Compound 4171],7.50
18,CC(C)(C#Cc1ccc(NC(=O)CSc2nnnn2-c2ccc(C3CC3)cc2Cl)c(Cl)c1)OCCN1CCC(O)CC1 [Compound 4104],7.19
19,CC(C)(C#Cc1ccc(NC(=O)CSc2nnnn2-c2ccc(C3CC3)cc2Cl)c(Cl)c1)NC(=O)CNc1cc[n+]([O-])cc1 [Compound 4193],7.54

# Same assay, conditions: IC50 mut, mutant reverse transcriptase, enzymatic assay of Example 24
row,SMILES,pIC50
1,Cc1cc(NC(=O)c2ccc(NC(=O)CSc3nnnn3-c3ccc(C(C)(C)C)cc3Cl)c(Cl)c2)ccc1/C=C/C(=O)O [Compound 6032],7.69
2,CSCCC(NC(=O)c1ccc(NC(=O)CSc2nnnn2-c2ccc(C(C)(C)C)cc2Cl)c(Cl)c1)C(=O)O (stereo not shown) [Compound 6025],7.39
3,Cc1ccc(-n2nncc2SCC(=O)Nc2ccc(-c3ccc(CC(=O)O)cc3)cc2Cl)c(Cl)c1 [Compound 1005],6.14
4,CC(C)(C)c1ccc(-n2nnnc2SCC(=O)Nc2ccc(-c3ccc(OCC(=O)O)cc3F)cc2Cl)c(Cl)c1 [Compound 3020],7.64
5,O=C(O)Cc1ccc(-c2ccc(NC(=O)CSc3nnnn3-c3ccc(C4CC4)cc3Cl)c(Cl)c2)cc1 [Compound 2033],7.82
6,CC(C)(C)c1ccc(-n2nnnc2SCC(=O)Nc2ccc(C(=O)Nc3ccc(/C=C/C(=O)O)cc3)cc2Cl)c(Cl)c1 [Compound 6022],7.85
7,CC(C)(C)c1ccc(-n2nnnc2SCC(=O)Nc2ccc(-c3ccc(/C=C/C(=O)O)cc3)cc2Cl)c(Cl)c1 [Compound 2032],8.18
8,CC(C)(C)c1ccc(-n2nnnc2SCC(=O)Nc2ccc(C(=O)Nc3cccc(C(=O)O)c3)cc2Cl)c(Cl)c1 [Compound 6021],7.24
9,CC(C)(C)c1cc(Cl)c(-n2nnnc2SCC(=O)Nc2ccc(-c3ccc(CC(=O)O)cc3)cc2Cl)c(Cl)c1 [Compound 2020],7.74
10,CC(C)(C)c1ccc(-n2nnnc2SCC(=O)Nc2ccc(OCC(=O)NCc3ccc(N)cc3)cc2Cl)c(Cl)c1 [Compound 5026],7.07
11,O=C(O)Cc1ccc(-c2ccc(NC(=O)CSc3nnnn3-c3ccc4ccccc4c3Cl)c(Cl)c2)cc1 [Compound 2030],7.19
12,Cc1ccc(-n2c(C)cnc2SCC(=O)Nc2ccc(-c3ccc(CC(=O)O)cc3)cc2Cl)c(Cl)c1 [Compound 1009],6.26
13,CC(C)(C)c1ccc(-n2nnnc2SCC(=O)Nc2ccc(OCC(=O)NCCO)cc2Cl)c(Cl)c1 [Compound 5015],6.80
14,CNC(=O)c1ccc(NC(=O)CSc2nnnn2-c2ccc(C)cc2Cl)c(Cl)c1 [Compound 3007],6.54
15,COC(=O)Cc1ccc(-c2ccc(NC(=O)CSc3nnnn3-c3ccc(C)cc3Cl)c(Cl)c2)cc1 [Compound 2003],7.28
16,CS(=O)(=O)NC(=O)c1ccc(NC(=O)CSc2nnnn2-c2ccc(C3CC3)cc2Cl)c(Cl)c1 [Compound 6036],6.84
17,CC(C)(C)c1ccc(-n2nnnc2SCC(=O)Nc2ccc(OCC(=O)NCc3ccco3)cc2Cl)c(Cl)c1 [Compound 5002],6.86
18,O=C(COc1ccc(NC(=O)CSc2nnnn2-c2ccc(C3CC3)cc2Cl)c(Cl)c1)NCCc1cc[n+]([O-])cc1 [Compound 5040],6.25
19,Cc1ccc(-n2nnnc2SCC(=O)Nc2ccc(-c3ccc(CC(N)=O)cc3)cc2[N+](=O)[O-])c(Cl)c1 [Compound 2013],7.70
20,CC(C)(C)c1ccc(-n2nnnc2SCC(=O)Nc2ccc(OCCN3CCOCC3)cc2Cl)c(Cl)c1 [Compound 3034],6.95
21,CC(C)(C)c1ccc(-n2nnnc2SCC(=O)Nc2ccc(C(=O)Nc3ccccc3O)cc2Cl)c(Cl)c1 [Compound 6011],7.59
22,O=C(CSc1nnnn1-c1ccc(C2CC2)cc1Cl)Nc1ccc(-c2ccc(OCCN3CCCC3)cc2)cc1Cl [Compound 2046],8.16
23,CN1CCN(C(=O)COc2ccc(NC(=O)CSc3nnnn3-c3ccc(C(C)(C)C)cc3Cl)c(Cl)c2)CC1 [Compound 5003],7.32
24,CC(C)(C(=O)O)c1ccc(-c2ccc(NC(=O)CSc3nnnn3-c3ccc(C4CC4)cc3Cl)c(Cl)c2)cc1 [Compound 2052],7.72
